Assay results: the OligoGym collection
“And” between values parts separate entries of the source, which are not always exact repeats. Identical values can stand only once. After the bases stand the sugars from the 5' end (letter, count) and the backbone: PS all phosphorothioate, else s phosphorothioate and o phosphodiester by linkage. Methylation of C is not given here. e = 2'-O-(2-methoxyethyl) (MOE); k = constrained ethyl (cEt); d = 2'-deoxy (DNA)

Biological target: SOD1
Settings: ASO

## ATCTTCCAAGTGATCAT (sugars e2 k2 d8 k2 e3, PS)
HepG2, 5 µM
  target mRNA inhibition: 38%

## ATGATGCCCTGCACTGGGCC (sugars e5 d10 e5, PS)
HepG2, 4 µM
  target mRNA inhibition: 20%

## ATGCCTCTCTTCATCCT (sugars e3 k2 d7 k2 e3, PS)
HepG2, 3 µM
  target mRNA inhibition: 0%

## ATGTTTATCAGGATACA (sugars eeeeddddddddkekee, linkages s1 o2 s9 o2 s2)
A431, 0.062 µM
  target mRNA inhibition: 12%
A431, 0.185 µM
  target mRNA inhibition: 19%
A431, 0.556 µM
  target mRNA inhibition: 29%
A431, 1.667 µM
  target mRNA inhibition: 38%
A431, 5 µM
  target mRNA inhibition: 51% and 50%
A431, 15 µM
  target mRNA inhibition: 61%
SH-SY5Y, 0.062 µM
  target mRNA inhibition: 15%
SH-SY5Y, 0.185 µM
  target mRNA inhibition: 27%
SH-SY5Y, 0.556 µM
  target mRNA inhibition: 52%
SH-SY5Y, 1.667 µM
  target mRNA inhibition: 63%
SH-SY5Y, 5 µM
  target mRNA inhibition: 79%
SH-SY5Y, 15 µM
  target mRNA inhibition: 92%

## ATGTTTATTGGGCGATC (sugars e2 k2 d9 k2 e2, PS)
HepG2, 4 µM
  target mRNA inhibition: 64%

## ATTCACAGGCTTGAATG (sugars e3 k2 d7 k2 e3, PS)
HepG2, 3 µM
  target mRNA inhibition: 11%

## ATTGAAACAGACATTTTAAC (sugars e5 d10 e5, PS)
HepG2, 5 µM
  target mRNA inhibition: 0%

## ATTTCTACAGCTAGCAG (sugars e3 k2 d7 k2 e3, PS)
HepG2, 3 µM
  target mRNA inhibition: 45%

## ATTTCTACAGCTAGCAGGAT (sugars e5 d10 e5, PS)
HepG2, 4 µM
  target mRNA inhibition: 69%
HepG2, 12 µM
  target mRNA inhibition: 82%

## CAAATCTTCCAAGTGAT (sugars e3 k2 d7 k2 e3, PS)
HepG2, 3 µM
  target mRNA inhibition: 18%

## CAAGGGAATGTTTATTG (sugars e3 k2 d7 k2 e3, PS)
HepG2, 3 µM
  target mRNA inhibition: 19%

## CAAGTTTAATACCCATC (sugars e2 k2 d9 k2 e2, PS)
HepG2, 5 µM
  target mRNA inhibition: 62%

## CAATTACACCACAAGCC (sugars e3 k2 d7 k2 e3, PS)
HepG2, 3 µM
  target mRNA inhibition: 33%

## CACAGGCTTGAATGACA (sugars e2 k2 d8 k2 e3, PS)
HepG2, 5 µM
  target mRNA inhibition: 34%

## CACAGGCTTGAATGACA (sugars e2 k2 d9 k2 e2, PS)
HepG2, 5 µM
  target mRNA inhibition: 47%

## CACCACAAGCCAAACGA (sugars e2 k2 d9 k2 e2, PS)
HepG2, 4 µM
  target mRNA inhibition: 46%

## CACCGTGTTTTCTGGATAGA (sugars e5 d10 e5, PS)
HepG2, 5 µM
  target mRNA inhibition: 24% and 11%

## CACTACAGGTACTTTAA (sugars e2 k2 d9 k2 e2, PS)
HepG2, 5 µM
  target mRNA inhibition: 38%

## CACTTTTAAGATTACAG (sugars e2 k2 d8 k2 e3, PS)
HepG2, 5 µM
  target mRNA inhibition: 37%

## CAGCTAGCAGGATAACA (sugars e2 k2 d8 k2 e3, PS)
HepG2, 4 µM
  target mRNA inhibition: 71%

## CAGCTAGCAGGATAACA (sugars e2 k2 d9 k2 e2, PS)
HepG2, 4 µM
  target mRNA inhibition: 61%

## CAGGATACATTTCTACAGCT (sugars e5 d10 e5, linkages s1 o3 s11 o2 s2)
A431, 0.062 µM
  target mRNA inhibition: 33%
A431, 0.185 µM
  target mRNA inhibition: 29%
A431, 0.556 µM
  target mRNA inhibition: 52%
A431, 0.6 µM
  target mRNA inhibition: 50%
A431, 1.667 µM
  target mRNA inhibition: 62%
A431, 5 µM
  target mRNA inhibition: 74%
A431, 15 µM
  target mRNA inhibition: 82%
SH-SY5Y, 0.062 µM
  target mRNA inhibition: 10%
SH-SY5Y, 0.185 µM
  target mRNA inhibition: 10%
SH-SY5Y, 0.556 µM
  target mRNA inhibition: 33%
SH-SY5Y, 1.667 µM
  target mRNA inhibition: 61%
SH-SY5Y, 5 µM
  target mRNA inhibition: 81%
SH-SY5Y, 15 µM
  target mRNA inhibition: 92%

## CAGTCCTTTAATGCTTCCCC (sugars e5 d10 e5, PS)
HepG2, 5 µM
  target mRNA inhibition: 51% and 40%

## CAGTGTGCGGCCAATGATGC (sugars e5 d10 e5, PS)
HepG2, 5 µM
  target mRNA inhibition: 0%

## CAGTGTTTAATGTTTA (sugars kekeddddddddekek, linkages s1 o3 s8 o1 s2)
A431, 0.12 µM
  target mRNA inhibition: 19%
A431, 0.6 µM
  target mRNA inhibition: 18%
A431, 3 µM
  target mRNA inhibition: 36%
A431, 15 µM
  target mRNA inhibition: 55%
HepG2, 0.222 µM
  target mRNA inhibition: 50%
HepG2, 0.667 µM
  target mRNA inhibition: 67%
HepG2, 2 µM
  target mRNA inhibition: 81%
HepG2, 6 µM
  target mRNA inhibition: 86%

## CATAATAAGTGCCATAC (sugars e2 k2 d9 k2 e2, PS)
HepG2, 5 µM
  target mRNA inhibition: 34%

## CATCGGCCACACCATCTTTG (sugars e5 d10 e5, PS)
HepG2, 5 µM
  target mRNA inhibition: 34% and 38%

## CATCTGTGATTTAAGTC (sugars e2 k2 d9 k2 e2, PS)
HepG2, 5 µM
  target mRNA inhibition: 48%

## CATCTGTGATTTAAGTCTGG (sugars e5 d10 e5, PS)
HepG2, 5 µM
  target mRNA inhibition: 29%

## CATGGAATCCATGCAGG (sugars e3 k2 d7 k2 e3, PS)
HepG2, 3 µM
  target mRNA inhibition: 14%
